Experimental data reported in ChEMBL document CHEMBL1201862, “PubChem BioAssay data set” (2004).
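Where inhibition never reached the appropriate level, the endpoint shown equals the highest concentration tested. Otherwise, values were interpolated linearly from a five-concentration, 48-hour dose response in 96-well plates. Here, GI50 denotes the concentration required for 50% inhibition of growth.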 The source made the active and inactive calls. No stated cut-off is given here; in the data, active = GI50 up to about 1.1 µM and inactive = higher.

What was measured:
Experiment in all cases: NCI-60 cell line screen, 48 h
786-0 = system: 786-0
A498 = system: A498
CAKI-1 = system: CAKI-1
CCRF-CEM = system: CCRF-CEM
COLO 205 = system: COLO 205
DU-145 = system: DU-145
EKVX = system: EKVX
K562 = system: K562
MDA-N = system: MDA-N
MOLT-4 = system: MOLT-4
Malme-3M = system: Malme-3M
NCI-H460 = system: NCI-H460
NCI/ADR-RES = system: NCI/ADR-RES
SF-539 = system: SF-539
SR = system: SR
UACC-62 = system: UACC-62
RXF 393 = system: RXF 393

Measured: GI50

S=C(Nc1ccccc1)c1ccc(CN2CCCCC2)s1
inactive: 786-0 17.6 µM | A498 18.4 µM | CAKI-1 20.7 µM | CCRF-CEM 16.4 µM | COLO 205 18.7 µM | DU-145 60.1 µM | EKVX 41.8 µM | K562 13.8 µM | MDA-N 17.5 µM | MOLT-4 16.1 µM | Malme-3M 21 µM | NCI-H460 21.6 µM | NCI/ADR-RES 28.6 µM | SF-539 37.8 µM | SR 15.6 µM | UACC-62 18.7 µM

CCOS(C)(=O)=O [METHANESULFONIC ACID ETHYL ESTER]
inactive: 786-0 > 100 µM | A498 > 100 µM | CAKI-1 > 100 µM | CCRF-CEM > 100 µM | COLO 205 > 100 µM | DU-145 > 100 µM | EKVX > 100 µM | K562 > 100 µM | MDA-N > 100 µM | MOLT-4 > 100 µM | Malme-3M > 100 µM | NCI-H460 > 100 µM | NCI/ADR-RES > 100 µM | RXF 393 > 100 µM | SF-539 > 100 µM | UACC-62 > 100 µM

COc1ccc(/N=C2/C(=N/c3ccc(OC)cc3)N(c3ccccc3)C(=S)N2N=C=C2Sc3ccccc3N2C)cc1
inactive: 786-0 > 100 µM | CAKI-1 > 100 µM | COLO 205 > 100 µM | DU-145 > 100 µM | EKVX > 100 µM | K562 > 100 µM | MDA-N > 100 µM | MOLT-4 > 100 µM | Malme-3M > 100 µM | NCI-H460 > 100 µM | NCI/ADR-RES > 100 µM | RXF 393 3.75 µM | SF-539 > 100 µM | SR > 100 µM | UACC-62 > 100 µM

CC(=O)OC1CC[C@@]2(C)C(=CC[C@@H]3[C@@H]2CC[C@]2(C)Nc4c(cnn4-c4ccc(F)cc4)C[C@@H]32)C1 (some centres not stated)
inactive: 786-0 3.26 µM | A498 19.8 µM | CAKI-1 6.1 µM | CCRF-CEM 6.46 µM | COLO 205 5.45 µM | DU-145 45.5 µM | EKVX 33.5 µM | K562 21.4 µM | MDA-N 39.2 µM | MOLT-4 2.02 µM | Malme-3M 9.35 µM | NCI-H460 12.9 µM | NCI/ADR-RES 60.1 µM | RXF 393 2.64 µM | SF-539 5.33 µM | UACC-62 15.8 µM

O=C1NC(N2CCOCC2)=N/C1=C\c1ccc(O)cc1
inactive: 786-0 > 100 µM | CAKI-1 > 100 µM | CCRF-CEM > 100 µM | COLO 205 > 100 µM | DU-145 > 100 µM | EKVX > 100 µM | MDA-N > 100 µM | MOLT-4 > 100 µM | Malme-3M > 100 µM | NCI/ADR-RES > 100 µM | RXF 393 > 100 µM | SF-539 > 100 µM | SR > 100 µM | UACC-62 > 100 µM

[O-][S+](Nc1ccccc1)c1ccc(Cl)cc1 (configuration not stated)
inactive: 786-0 > 100 µM | CAKI-1 > 100 µM | CCRF-CEM 89.9 µM | COLO 205 > 100 µM | DU-145 91.4 µM | EKVX > 100 µM | K562 > 100 µM | MDA-N > 100 µM | MOLT-4 31.4 µM | Malme-3M > 100 µM | NCI-H460 56 µM | NCI/ADR-RES 64.9 µM | SF-539 18.9 µM | SR 16.4 µM | UACC-62 14.9 µM

O=[N+]([O-])c1ccc2c(c1)C1=C(CO2)Cc2ccccc2O1
inactive: 786-0 17.4 µM | A498 63.8 µM | CAKI-1 17.6 µM | CCRF-CEM 23.6 µM | COLO 205 16.8 µM | DU-145 33.9 µM | EKVX 27.2 µM | K562 51.4 µM | MDA-N 17.9 µM | MOLT-4 > 10 µM | Malme-3M 26.4 µM | NCI/ADR-RES 30.3 µM | SF-539 23.9 µM | SR 18.9 µM | UACC-62 19.4 µM

Cc1ccc(/S(Cc2ccccc2)=N\S(=O)(=O)c2ccc(C)cc2)cc1 (configuration not stated)
inactive: 786-0 > 100 µM | CCRF-CEM > 100 µM | COLO 205 > 100 µM | DU-145 > 100 µM | EKVX > 100 µM | K562 > 100 µM | MDA-N > 100 µM | MOLT-4 5.92 µM | Malme-3M > 100 µM | NCI-H460 > 100 µM | NCI/ADR-RES 50 µM | RXF 393 > 100 µM | SF-539 > 100 µM | SR > 100 µM

O=C1N/C(=N/N=C/c2ccccc2)N/C1=C\c1c[nH]c2ccccc12
inactive: 786-0 41.5 µM | A498 > 100 µM | CAKI-1 > 100 µM | CCRF-CEM 11.4 µM | COLO 205 60.7 µM | DU-145 > 100 µM | EKVX 84.5 µM | K562 47.1 µM | MDA-N > 100 µM | MOLT-4 25.1 µM | Malme-3M > 100 µM | NCI-H460 61 µM | NCI/ADR-RES > 100 µM | RXF 393 > 100 µM | SF-539 > 100 µM | UACC-62 > 100 µM
